Test results from US7094400B1, “Transkaryotic implantation” (Shire Human Genetic Therapies, Inc., priority 1987, dated 2006).

Tests used:
[1] = tested on: Transfected cells which expressed human growth hormone; test: Effects of immunosuppression on IP cells, serum human growth hormone; format: in vivo; conditions: for serum human growth hormone: in ng/mL
From the text: If the transfected cells are destroyed by transplant rejection, immunosuppression should prolong the functional life of the implant.

[2] = tested on: mouse metallothionein-I promoter; test: Zinc induction of hGH expression from intraperitoneally implanted cells (metallothionein-I promoter); format: in vivo, mice; conditions: 76 mM ZnSO4 in drinking water; IP stably transfected cells
Experimental: As described above, the plasmid pXGH5 contains the mouse metallothionein-I promoter. In order to determine whether the implanted cells were sufficiently healthy to respond to their local environment, the ability of zinc to induce higher levels of human growth hormone expression was determined. Stably transfected cells, prepared as described in Example 1B, were implanted intraperitoneally in mice, some of which were given 76 mM ZnSO4 in their drinking water. The animals treated with zinc expressed ten-fold more human growth hormone in their serum than did those with no treatment. […] Furthermore, RNA prepared from cells recovered from subcapsular implants contained the correct mMT-I/human growth hormone fusion mRNA (FIG. 5). […] Of substantial importance is the fact that the cells, once in place in the animal, could still be modulated by external means.

In the case of C[C@@H]1C[C@H]2[C@@H]3CCC4=CC(=O)C=C[C@]4(C)[C@@]3(F)[C@@H](O)C[C@]2(C)[C@@]1(O)C(=O)CO [Dexamethasone, dexamethasone], the “serum human growth hormone detectable until” value [1] is reported as 48 days post-implantation, the “serum human growth hormone” value ([1]; day 1 post-implantation) is reported as 94.8 +/− 9.2 and the “serum human growth hormone” value ([1]; day 2 post-implantation) is reported as 86.6 +/− 10.5. For the same compound, the “serum human growth hormone” value ([1]; day 4 post-implantation) was 54.3 +/− 14.2, the “serum human growth hormone” value ([1]; day 21 post-implantation) was 28.0 +/− 13.6 and the “serum human growth hormone” value ([1]; day 27 post-implantation) was 13.9 +/− 6.9. The “serum human growth hormone” value ([1]; day 41 post-implantation) was 7.5 +/− 6.1, the “serum human growth hormone” value ([1]; day 48 post-implantation) was 2.7 +/− 2.2 and the “serum human growth hormone” value ([1]; days 8 to 10 post-implantation) was 99.3 +/− 48.0. The “serum human growth hormone” value ([1]; days 15 to 17 post-implantation) was 28.3 +/− 18.1.
In the case of O=S(=O)([O-])[O-].[Zn+2] [ZnSO4], the “human growth hormone in serum versus no treatment” value [2] is reported as “ten-fold more”.
